From patent publication US20230138047A1, “ANTI-CLAUDIN-1 MONOCLONAL ANTIBODIES FOR THE PREVENTION AND TREATMENT OF FIBROTIC DISEASES” (Université de Strasbourg, priority 2019, published 2023)
Changes are numbered by the printed parent chain. Structures can show the parent of a compound that is named as a salt. Each block holds one molecule with its values, some of them ahead of it.

Tests used:
[1] = test system: bleomycin-induced pulmonary fibrosis
Method: Materials and Methods Protocol to Examine the Effects of an anti-human CLDN1 Monoclonal Antibody in Preventing Fibrosis in a Bleomycin-Induced Pulmonary Fibrosis Model. Pathogen-free 6 weeks old female C57BL/6Jmice were obtained from Japan SLC, Inc. (Japan). At Day 0, 54 mice were induced to develop pulmonary fibrosis by a single intratracheal administration of bleomycin hydrochloride (BLM, Nippon Kayaku, Japan) in saline at a dose of 3.0 mg/kg, in a volume of 50 μL per animal using Microsprayer® (Penn-Century, USA). In each slot, the mice were randomized into 3 groups of 18 mice based on their body weight on the day before the start of treatment at Day 0. Individual body weights were measured daily during the experimental period. Survival, clinical signs and behaviour of mice were monitored daily.
Mice groups. Group 1 (Vehicle): Eighteen bleomycin-induced pulmonary fibrosis model mice were intraperitoneally administered vehicle [Saline] in a volume of […] once weekly from Day 0 to 20. […] Group 3 (Dexamethasone): Eighteen bleomycin-induced pulmonary fibrosis model mice were orally administered pure water supplemented with Dexamethasone at a dose of 0.25 mg/kg (in a volume of 10 mL/kg) once daily from Day 0 to 20. Mice in all groups were sacrificed at Day 21.
Survival, biochemical and histological analysis. […]

[2] = test system: BLM-induced skin fibrosis; assay: Bleomycin-induced skin fibrosis model; format: in vivo, mouse; conditions: 50 mg/kg i.p., BLM for 4 weeks
From the text: BLM Model and Sampling. As indicated on the scheme presented on FIG. 6, the BLM is subcutaneously injected every other day into the pre-shaved back of mice for 4 weeks. The injection sites are located at the corners of a 1.5 cm^2-square shaved area and used in rotation (corner 1, corner 2, corner 3, corner 4, corner 1, etc). A 5-mm circle is clipped using a dermal punch and used for collagen quantification. The remaining intact area is cut out into 3 rectangles, one for histology and two for biochemical analyses.
Effects of Imatinib on Skin Fibrosis. Imatinib mesylate is a tyrosine kinase inhibitor against c-Abl, PDGFR, and several other tyrosine kinases (Alfiya et al., Arthritis Rheum., 2009, 60: 219). c-Abl is crucial for induction of ECM proteins through the TGF-β pathway. Its inhibition may reduce the synthesis of EMC components. Imatinib interferes with PDGF signalling by blocking the tyrosine kinase activity of PDGFR (Alfiya et al., Arthritis Rheum., 2009, 60: 219). The study design is presented on FIG. 7.

[3] = test system: bleomycin-induced pulmonary fibrosis; assay: Bleomycin-induced pulmonary fibrosis model, late treatment (Day 7 to 20); format: in vivo, C57BL/6J mice; conditions: mean±SD, Day 21
From the text: Protocol to Examine the Effects of anti-human CLDN1 Monoclonal Antibody in Treating Fibrosis in a Bleomycin-Induced Pulmonary Fibrosis Model. Pathogen-free 6 weeks old female C57BL/6Jmice will be obtained from Japan SLC, Inc. (Japan). […] The mice were transferred to a clean cage (resting cage) and kept until recovery from anesthesia. The bleomycin administration took place on two separate days, with equal numbers of mice assigned to each day. […] Mice groups. […] Survival, biochemical and histological analysis. […] Lung hydroxyproline content was assessed according to a routine method. Statistical tests. Statistical tests were performed using Kruskal-Wallis test.

[4] = test system: UUO-induced renal interstitial fibrosis; assay: Unilateral ureteral obstruction (UUO)-induced renal interstitial fibrosis; format: in vivo
Method: Test Substances. A murinized version of an anti CLDN1 mAb was synthetized at the Inventors' laboratory and used in the present study. […] To prepare dosing solution, the anti-CLDN1 mAb was diluted with a saline solution used as vehicle. Telmisartan (Micardis®) was purchased from Boehringer Ingelheim GmbH (Germany) and dissolved in pure water.
Unilateral Ureteral Obstruction (UUO) Surgery. On Day 0, UUO surgery was performed under three types of mixed anesthetic agents (medetomidine, midazolam, butorphanol). After shaving the hair, the abdomen was cut open and the left ureter was exteriorized. The ureter was ligated by 4-0 silk sutures at two points. The peritoneum and the skin were closed with sutures, and the mice were transferred to a clean cage and kept until recovery from anesthesia.
Route of Drug Administration. The anti-CLDN1 mAb was administered intraperitoneally at a volume of 100 μL/mouse. Telmisartan was administered orally at a volume of 10 μL/mouse.
Treatment Doses. The anti-CLDN1 mAb was administered at a dose of 500 μg/100 μL/mouse. Telmisartan was administered at a dose of 30 mg/kg once daily.
Animals. Seven-week-old female C57BL/6J mice were obtained from Japan SLC, Inc. (Japan). Animals were housed and fed with a normal diet (CE-2; CLEA Japan, Japan) under controlled conditions. All animals used in the study were housed and cared for in accordance with the Japanese Pharmacological Society Guidelines for Animal Use. The animals were maintained in a SPF facility under controlled conditions of temperature (23±3° C.), humidity (50±20%), lighting (12-hour artificial light and dark cycles; light from 8:00 to 20:00) and air exchange. A high pressure was maintained in the experimental room to prevent contamination of the facility. The animals were housed in TPX cages (CLEA Japan) with a maximum of 4 mice per cage. Sterilized Paper-Clean (Japan SLC) was used for bedding and replaced once a week.
Measurement of Plasma Biochemistry. For plasma biochemistry, non-fasting blood was collected in polypropylene tubes with anticoagulant (Novo-Heparin, Mochida Pharmaceutical Co. Ltd., Japan) and centrifuged at 1,000×g for 15 minutes at 4° C. The supernatant was collected and stored at −80° C. until use. Plasma urea nitrogen was measured by FUJI DRI-CHEM 7000 (Fujifilm, Japan).
Measurement of Kidney Biochemistry. To quantify kidney hydroxyproline content, frozen left kidney samples were processed by an alkaline-acid hydrolysis method as follows. Kidney samples were dissolved in 2N NaOH at 65° C., and autoclaved at 121° C. for 20 minutes. The lysed samples (150 μL) were acid-hydrolyzed with 150 μL of 6N HCl at 121° C. for 20 minutes, and neutralized with 150 μL of 4N NaOH containing 10 mg/mL activated carbon. AC buffer (2.2M acetic acid/0.48M citric acid, 150 μL) was added to the samples, followed by centrifugation to collect the supernatant. A standard curve of hydroxyproline was constructed with serial dilutions of trans-4-hydroxy-L-proline (Sigma-Aldrich, USA) starting at 16 μg/mL. The prepared samples and standards (each 400 μL) were mixed with 400 μL chloramine T solution (Nacalai Tesque Inc., Japan) and incubated for 25 minutes at room temperature. The samples were then mixed with Ehrlich's solution (400 μL) and heated at 65° C. for 20 minutes for color development. After samples were cooled on ice and centrifuged to remove precipitates, the optical density of each supernatant was measured at 560 nm. The concentrations of hydroxyproline were calculated from the hydroxyproline standard curve. Protein concentrations of kidney samples were determined using a BCA protein assay kit (Thermo Fisher Scientific, USA) and used to normalize the calculated hydroxyproline values. Kidney hydroxyproline contents were expressed as μg per mg protein.
Histopathological Analyses. For PAS staining, sections were cut from paraffin blocks and stained with Schiff's reagent (Wako Pure Chemical Industries) according to the manufacturer's instructions. […]

human Claudin-1 (CLDN1) [5] = target: T1, human Claudin-1 (CLDN1) (human, UniProt O95832 1-211); assay: flow cytometry on A549 lung cells, PE median fluorescence, Michaelis-Menten fit
T1 construct: whole, on cells; Tight junction membrane protein; endogenously expressed on the cell lines, primary cells and tissues used; also called CLDNA
T1 sequence (looked up): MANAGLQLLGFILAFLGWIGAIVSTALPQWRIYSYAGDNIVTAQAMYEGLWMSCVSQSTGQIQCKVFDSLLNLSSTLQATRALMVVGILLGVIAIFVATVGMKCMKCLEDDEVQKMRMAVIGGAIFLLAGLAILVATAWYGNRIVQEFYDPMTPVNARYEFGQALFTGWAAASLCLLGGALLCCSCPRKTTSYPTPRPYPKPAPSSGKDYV
Method: (§1) FIG. 4. Binding Properties of Humanized CLDN1-specific MAbs Targeting CLDN1 Expressed on Kidney RPTEC/TERT1 and Lung A549 Cell Lines. Cells were incubated with increasing concentrations of humanized H3L3 CLDN1-specific mAb, as indicated. Representative histograms show binding of humanized H3L3 CLDN1-specific mAb at the saturation point for each specific cells line: (A) RPTEC/TERT1 (50 μg/mL) and (B) A549 (20 μg/mL). Binding was measured by flow cytometry after incubation with PE-labelled anti-human and analyzed with Cytoflex and FlowJo V10. […] The graphs show binding of humanized H3L3 CLDN1-specific mAb until the saturation point for each specific cell line.
(§2) Binding Studies. Cells were de-attached using a solution of EDTA (4 mM) and re-suspended in PBS containing 1% FBS at 4° C. Then, 150,000 cells were incubated with increasing concentrations of the humanized H3L3 CLDN1-specific mAb (see WO/2017/162678) and the binding signals were read by flow cytometry after incubation with PE-labelled anti-human using a dilution of 1:100 and analyzed with Cytoflex and FlowJo V10. Two washes with PBS containing 1% FBS were performed after every antibody incubation. A binding curve for each cell line was built using the PE median fluorescence intensity (MFI) and the Kd of the interaction was calculated by applying the Michaelis-Menten mathematical model in R 3.5.1.

human Claudin-1 (CLDN1) [6] = target: T1, human Claudin-1 (CLDN1); assay: flow cytometry on RPTEC/TERT1 kidney cells, PE median fluorescence, Michaelis-Menten fit
Method: as §1, §2

[7] = Antibody biodistribution in mice (Alexa-fluor 750 label, ex vivo organ fluorescence); parameters: species or system Balb/c mice; conditions: 500 μg i.p.; organs harvested at 24 hours and 48 hours
Method: Reagents and Antibodies. The anti-Claudin-1 monoclonal antibody (anti-CLDN1 mAb-OM-7D3-B3) was produced as previously described (Fofana et al., Gastroenterology, 2010, 139: 953-964, e1-4). Control mAb (rat IgG2b clone LTF-25, Bio X Cell) was also used.
Antibody biodistribution. The antibodies were labeled with Alexa-fluor 750 (RD-Biotech, Besangon, France). Eight week-old Balb/c mice were injected intraperitoneally with 500 μg of Alexa-fluor 750-labeled CLDN1-specific or control mAb. Organs were harvested 24 hours and 48 hours as previously described (Krieger et al., Hepatology, 2010, 51: 1144-1157) and ex vivo organ-specific fluorescence was detected with an IVIS Lumina 50 (Xenogen-Caliper-Perkin-Elmer) and expressed as average efficiency.
Statistical Analyses. The Mann-Whitney test was used. A p-value <0.05 was considered significant. Statistical analyzes were performed with GraphPad Prism 6 software.

[8] = kidney sections versus Vehicle group

Molecule: C[C@@H]1C[C@H]2[C@@H]3CCC4=CC(=O)C=C[C@]4(C)[C@@]3(F)[C@@H](O)C[C@]2(C)[C@@]1(O)C(=O)CO [Dexamethasone]
mice found dead before reaching Day 21 ([1]; 18 mice per group): Ten out of 18
survival rate compared with Vehicle group ([1]; Kaplan-Meier, Log Rank Test): significant decrease

Molecule: Cc1ccc(NC(=O)c2ccc(CN3CCN(C)CC3)cc2)cc1Nc1nccc(-c2cccnc2)n1 [Imatinib, Imatinib mesylate]
dermal thickness ([2]; HE staining): significant decrease
skin fibrosis area ([2]; Masson staining): significant decrease

Molecule: COC(=O)c1ccc2c(c1)NC(=O)/C2=C(\Nc1ccc(N(C)C(=O)CN2CCN(C)CC2)cc1)c1ccccc1 [Nintedanib]
lung hydroxyproline levels [3]: 51.3±9.0

Molecule: CCCc1nc2c(C)cc(-c3nc4ccccc4n3C)cc2n1Cc1ccc(-c2ccccc2C(=O)O)cc1 [Telmisartan]
Sirius red-positive area ([4]; fibrosis area, mean ± S.D., n = 8): 2.44 ± 1.19%
inflammatory cell infiltration, F4/80 immunostaining [4, 8]: lower than that in the Vehicle group
inflammatory cell infiltration, PAS staining [4, 8]: lower than in the Vehicle group
Kidney hydroxyproline ([4]; left kidney, mean ± S.D., n = 8): 6.19 ± 2.31 μg/mg total protein
Right kidney weight ([4]; mean ± S.D., n = 8): 139 ± 9 mg
Body weight ([4]; mouse, in vivo): 18.7 ± 1.1 g
Plasma urea nitrogen ([4]; mouse, in vivo): 33.9 ± 5.2 mg/dL
Left kidney weight ([4]; obstructed kidney, mean ± S.D., n = 8): 630 ± 160 mg

Kd (human Claudin-1 (CLDN1) [5]): 16.3 nM
Kd (human Claudin-1 (CLDN1) [6]): 53 nM
B1: humanized H3L3 CLDN1-specific mAb (antibody, V domains shown)
VH: QVQLVESGGGVVQPGRSLRLSCLGSGFSFSSYGMNWVRQAPGKGLEWVASISPSGSYFYYADSVKGRFTISRDNSKNTLYLQMTSLRAEDTAIYYCARLPGFNPPFDHWGQGTLVTVSS
VL: DIQMTQSPSSLSASVGDRVTITCKASQNVGGNVDWYQWKPGKAPKLLIYGASNRYTGVPDRFRGSGSGTDFTLTISSLQPEDVATYYCLQYKNNPWTFGGGTKVEIK
notes: also called anti-CLDN1 mAb H3L3; humanized anti-CLDN1 mAb

B2: OM-7D3-B3: rat monoclonal antibody against human Claudin-1 secreted by hybridoma DSM ACC2938; VH SEQ ID NO: 1, VL SEQ ID NO: 2 (antibody, V domains shown)
VH: B1 VH with Q1E, V11L, R19K, V37I, D73E, S75A, I93L, T113V, L114V
VL: NTVMTQSPTSMFMSVGDRVTMNCKASQNVGGNVDWYQWKPGQSPKLLMYGASNRYTGVPDRFRGSGSGTDFTLTISNMQTEDLAVYYCLQYKNNPWTFGGGTKVELK
modifications: variable heavy chain of OM-7D3-B3; variable light chain of OM-7D3-B3
organ enrichment of labeled antibody versus control mAb [7]: enrichment in the anti-CLDN1 monoclonal antibody was observed in skin, kidneys, lungs, intestines and liver
